Test results as given in PubChem BioAssay AID2060618 (Molecular Pharmacology Branch, DTP, NCI, 2025).

Tested on: 454973-116-R2-J3-PDC spheroids, percent test/control viability
Assay: Anticancer human tumor 454973-116-R2-J3-PDC patient-derived pancreatic carcinoma cell line growth inhibition [CLK]
Settings: spheroids with HUVEC and MSC; for IC50: curve of first compound; for viability, T/C: stronger effect = lower value
Description: A high-throughput screen of multi-cell type tumor spheroids was designed to identify active combinations of […] and targeted small molecules. Complex spheroids include a stromal component modeled by human endothelial cells (HUVEC) and fibroblasts modeled by human mesenchymal stem cells (MSCs). The concentration ranges selected for each drug and investigational agent were based upon clinically achievable concentrations if the clinical Cmax of the agent was known.
Compounds. The drugs and investigational agents: cirtuvivint (SM08502; NSC835563), CC-671 (NSC850746), vemurafenib (NSC761431), tapotoclax (NSC804041), sotorasib (NSC818433), adagrasib (NSC831453), MRTX-1133 (NSC836407), BAY2416964 (NSC825713), copanlisib (NSC816437), inavolisib (NSC800729), abemaciclib (NSC768073), osimertinib (NSC779217), entinostat (NSC756642), eltanexor (KPT-8602, NSC794443), venetoclax (NSC766270), ceralasertib (NSC777638), bortezomib (NSC756655), olaparib (NSC753686), talazoparib (NSC767125), alisertib (NSC759677), peposertib (NSC802822), gemcitabine (NSC613327), 5-fluorouracil (NSC19893), SN-38 (NSC673596), oxaliplatin (NSC266046), paclitaxel (NSC125973), and doxorubicin (NSC123127), were obtained from the National Cancer Institute (NCI) Developmental Therapeutics Program Chemical Repository. The FDA-approved anticancer drug set is available from the Developmental Therapeutics Program at https://dtp.cancer.gov/organization/dscb/obtaining/available plates.htm. […] The stock solutions were prepared in dimethyl sulfoxide (DMSO, Sigma-Aldrich, St. Louis, MO, cat. D2650), except for the platinum complexes which were prepared in saline (Quality Biological, Gaithersburg, MD, cat. 114-055-101), at 800-fold the tested concentration and stored at -70 degrees C prior to their use. All drugs and investigational agents were tested over a range starting from a high concentration at or near the clinical Cmax and decreasing in half-log increments. If the clinical Cmax for an agent had not been determined, the highest concentration tested was 10 microM.
Cell Culture. All cells were maintained in an incubator at 37 degrees C and 5% CO2 with 95% humidity. The PDC lines were cultured according to standard operating procedures established by the NCI PDMR. Briefly, all PDCs were thawed and cultured in Matrigel-coated flasks prepared with a working solution of 1X Ham's F-12 nutrient mix, without supplementation (Invitrogen, Waltham, MA, cat. 11765054), 100 U/mL penicillin-streptomycin (Invitrogen, cat. 15140122), and 2.5% Matrigel (Corning Inc., Corning, NY, cat. 354248) for the first three passages. The 947758-054-R-J2-PDC line was cultured in 6B/Colon 1A media, which includes advanced DMEM/F-12 (Thermo Fisher Scientific, cat. 12634028), 10 mM HEPES (Thermo Fisher Scientific, cat. 15630080), 1X GlutaMAX supplement (Thermo Fisher Scientific, cat. 35050061), 0.1 mg/mL primocin (InvivoGen, cat. ant-pm-2), 10% defined fetal bovine serum, heat inactivated (HyClone Laboratories Inc., cat. SH30070.03HI), 1.25 mM N-Acetyl-L-cysteine (Sigma-Aldrich, cat. A9165), 10 mM nicotinamide (Sigma-Aldrich, cat. N0636), 1X B-27 supplement (Thermo Fisher Scientific, cat. 17504044), 1X N-2 supplement (Thermo Fisher Scientific, cat. 17502048), and 10 microM Y-27632 dihydrochloride (Tocris Bioscience, cat. 1254). The 876862-298-R-J1-PDC was cultured in 6E media, which includes all 6B/Colon 1A media components plus 50% L-WRN conditioned media (ATCC, cat. CRL-3276), 50 ng/mL recombinant human EGF recombinant protein (hEGF; Thermo Fisher Scientific, cat. PHG0311), 10 ng/mL recombinant human fibroblast growth factor 10 (hGFG-10; PeproTech, cat. 100-26), 1 ng/mL recombinant human fibroblast growth factor 2 (hFGF-2; PeproTech, cat. 100-18B), and 1 µM prostaglandin E2 (PGE2; Tocris, cat. 2296). The 227483-062-R1-J1-PDC line was cultured in Panc media, containing all 6E components except hFGF-2, with the addition of 500 nM SB-431542 (Selleckchem, cat. S1067) and 10 nM gastrin (Tocris, cat. 3006). […]
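Also: spheroids exposed to compounds for 7 days before readout.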

Q: What does the source list for `C#Cc1c(F)ccc2cc(O)cc(-c3ncc4c(N5CC6CCC(C5)N6)nc(OCC56CCCN5CC(F)C6)nc4c3F)c12` (configuration not stated) + CN1CCN(c2cc(C(=O)Nc3cc4cc(-c5cnn(C)c5)ccc4cn3)ccn2)CC1?
A: IC50 (second compound 0.0316 µM): 34.7 nM; IC50 (second compound 0.1 µM): < 31.6 nM; IC50 (second compound 0.316 µM): < 31.6 nM; IC50 (second compound 1 µM): < 31.6 nM; IC50 (second compound 3.16 µM): < 31.6 nM; IC50 (second compound 10 µM): < 31.6 nM; viability, T/C (second compound 0.0316 µM, first compound 0.0316 µM): 51%; viability, T/C (second compound 0.0316 µM, first compound 0.1 µM): 40.5%; viability, T/C (second compound 0.0316 µM, first compound 0.316 µM): 29.7%; viability, T/C (second compound 0.0316 µM, first compound 1 µM): 30.5%; viability, T/C (second compound 0.0316 µM, first compound 3.16 µM): 26.4%; viability, T/C (second compound 0.0316 µM, first compound 10 µM): 21.7%; viability, T/C (second compound 0.1 µM, first compound 0.0316 µM): 42%; viability, T/C (second compound 0.1 µM, first compound 0.1 µM): 35.6%; viability, T/C (second compound 0.1 µM, first compound 0.316 µM): 29.6%; viability, T/C (second compound 0.1 µM, first compound 1 µM): 21.9%; viability, T/C (second compound 0.1 µM, first compound 3.16 µM): 22.5%; viability, T/C (second compound 0.1 µM, first compound 10 µM): 16.6%; viability, T/C (second compound 0.316 µM, first compound 0.0316 µM): 2.95%; viability, T/C (second compound 0.316 µM, first compound 0.1 µM): 4.54%; viability, T/C (second compound 0.316 µM, first compound 0.316 µM): 2.86%; viability, T/C (second compound 0.316 µM, first compound 1 µM): 2.52%; viability, T/C (second compound 0.316 µM, first compound 3.16 µM): 2.6%; viability, T/C (second compound 0.316 µM, first compound 10 µM): 2.24%; viability, T/C (second compound 1 µM, first compound 0.0316 µM): 0.11%; viability, T/C (second compound 1 µM, first compound 0.1 µM): 0.13%; viability, T/C (second compound 1 µM, first compound 0.316 µM): 0.46%; viability, T/C (second compound 1 µM, first compound 1 µM): 0.08%; viability, T/C (second compound 1 µM, first compound 3.16 µM): 0.12%; viability, T/C (second compound 1 µM, first compound 10 µM): 0.4%; viability, T/C (second compound 3.16 µM, first compound 0.0316 µM): 0.06%; viability, T/C (second compound 3.16 µM, first compound 0.1 µM): 0.9%; viability, T/C (second compound 3.16 µM, first compound 0.316 µM): 0.56%; viability, T/C (second compound 3.16 µM, first compound 1 µM): 0.07%; viability, T/C (second compound 3.16 µM, first compound 3.16 µM): 0.09%; viability, T/C (second compound 3.16 µM, first compound 10 µM): 1.64%; viability, T/C (second compound 10 µM, first compound 0.0316 µM): 0.11%; viability, T/C (second compound 10 µM, first compound 0.1 µM): 0.13%; viability, T/C (second compound 10 µM, first compound 0.316 µM): 0.73%; viability, T/C (second compound 10 µM, first compound 1 µM): 0.56%; viability, T/C (second compound 10 µM, first compound 3.16 µM): 0.92%; viability, T/C (second compound 10 µM, first compound 10 µM): 0.5%
